Test results published in publication doi:10.1101/2021.04.08.439011v1 (biorxiv, 2021).
Read-outs that look alike come from different tables or passages of the source.

How the values were obtained:
[1] = target: ABL1 (Homo sapiens, UniProt P00519); conditions: 0.1 µM, binder
[2] = target: ADCK4 (Homo sapiens, UniProt Q96D53); conditions: 0.1 µM; binder
[3] = target: ASK2 (Homo sapiens, UniProt O95382); conditions: 0.1 µM; binder
[4] = target: BMX (Homo sapiens, UniProt P51813); conditions: 0.1 µM; binder
[5] = target: BTK (Homo sapiens, UniProt Q06187); conditions: 0.1 µM; binder
[6] = target: CSNK1G2 (Homo sapiens, UniProt P78368); conditions: 0.1 µM; binder
[7] = target: FGFR2 (Homo sapiens, UniProt P21802); conditions: 0.1 µM; binder
[8] = target: HASPIN (Homo sapiens, UniProt Q8TF76); conditions: 0.1 µM; binder
[9] = target: MAP3K2 (Homo sapiens, UniProt Q9Y2U5); conditions: 0.1 µM; binder
[10] = target: MAP3K3 (Homo sapiens, UniProt Q99759); conditions: 0.1 µM; binder
[11] = target: MAP4K2 (Homo sapiens, UniProt Q12851); conditions: 0.1 µM; binder
[12] = target: MAPKAPK5 (Homo sapiens, UniProt Q8IW41); conditions: 0.1 µM; binder
[13] = target: MARK3 (Homo sapiens, UniProt P27448); conditions: 0.1 µM; binder
[14] = target: MARK4 (Homo sapiens, UniProt Q96L34); conditions: 0.1 µM; binder
Chain of MARK4 (Q96L34 whole entry): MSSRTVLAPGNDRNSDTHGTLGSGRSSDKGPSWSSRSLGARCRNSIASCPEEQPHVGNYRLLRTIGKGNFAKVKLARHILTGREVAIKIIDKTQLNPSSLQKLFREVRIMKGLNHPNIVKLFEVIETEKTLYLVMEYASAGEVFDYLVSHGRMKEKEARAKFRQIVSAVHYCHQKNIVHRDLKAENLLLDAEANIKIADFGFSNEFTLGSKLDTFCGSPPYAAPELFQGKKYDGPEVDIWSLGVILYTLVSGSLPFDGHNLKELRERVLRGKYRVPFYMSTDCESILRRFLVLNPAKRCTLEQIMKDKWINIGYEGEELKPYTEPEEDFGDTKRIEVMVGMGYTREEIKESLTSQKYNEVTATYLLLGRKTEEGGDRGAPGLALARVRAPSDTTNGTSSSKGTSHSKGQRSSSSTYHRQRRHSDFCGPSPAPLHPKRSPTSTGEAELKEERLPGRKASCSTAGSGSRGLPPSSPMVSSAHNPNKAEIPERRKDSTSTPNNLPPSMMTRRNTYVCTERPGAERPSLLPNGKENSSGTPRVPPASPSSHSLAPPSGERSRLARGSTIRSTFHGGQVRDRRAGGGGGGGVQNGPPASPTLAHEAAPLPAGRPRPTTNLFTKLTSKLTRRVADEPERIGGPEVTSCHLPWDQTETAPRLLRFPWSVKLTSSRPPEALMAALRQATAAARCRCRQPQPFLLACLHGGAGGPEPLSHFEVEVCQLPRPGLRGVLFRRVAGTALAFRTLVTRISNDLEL

[15] = target: MEK1 (Homo sapiens, UniProt Q02750); conditions: 0.1 µM; binder
[16] = target: MRCKA (Homo sapiens, UniProt Q5VT25); conditions: 0.1 µM; binder
[17] = target: MYLK2 (Homo sapiens, UniProt Q9H1R3); conditions: 0.1 µM; binder
[18] = target: NDR1 (Homo sapiens, UniProt Q15208); conditions: 0.1 µM; binder
[19] = target: NEK2 (Homo sapiens, UniProt P51955); conditions: 0.1 µM; binder
Chain of NEK2 (P51955 whole entry): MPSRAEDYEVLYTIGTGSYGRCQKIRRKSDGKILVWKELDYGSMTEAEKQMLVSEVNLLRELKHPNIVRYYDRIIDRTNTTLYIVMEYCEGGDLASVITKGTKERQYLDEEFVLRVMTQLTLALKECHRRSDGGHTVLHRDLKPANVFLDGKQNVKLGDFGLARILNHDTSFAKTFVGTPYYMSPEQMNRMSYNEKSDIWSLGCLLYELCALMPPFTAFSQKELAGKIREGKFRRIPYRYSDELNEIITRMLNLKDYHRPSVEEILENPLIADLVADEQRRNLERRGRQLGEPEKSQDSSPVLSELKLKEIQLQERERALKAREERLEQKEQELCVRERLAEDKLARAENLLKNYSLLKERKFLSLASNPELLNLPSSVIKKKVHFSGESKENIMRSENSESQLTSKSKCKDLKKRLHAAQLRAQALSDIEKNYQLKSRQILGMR

[20] = target: NEK9 (Homo sapiens, UniProt Q8TD19); conditions: 0.1 µM; binder
Chain of NEK9 (Q8TD19 whole entry): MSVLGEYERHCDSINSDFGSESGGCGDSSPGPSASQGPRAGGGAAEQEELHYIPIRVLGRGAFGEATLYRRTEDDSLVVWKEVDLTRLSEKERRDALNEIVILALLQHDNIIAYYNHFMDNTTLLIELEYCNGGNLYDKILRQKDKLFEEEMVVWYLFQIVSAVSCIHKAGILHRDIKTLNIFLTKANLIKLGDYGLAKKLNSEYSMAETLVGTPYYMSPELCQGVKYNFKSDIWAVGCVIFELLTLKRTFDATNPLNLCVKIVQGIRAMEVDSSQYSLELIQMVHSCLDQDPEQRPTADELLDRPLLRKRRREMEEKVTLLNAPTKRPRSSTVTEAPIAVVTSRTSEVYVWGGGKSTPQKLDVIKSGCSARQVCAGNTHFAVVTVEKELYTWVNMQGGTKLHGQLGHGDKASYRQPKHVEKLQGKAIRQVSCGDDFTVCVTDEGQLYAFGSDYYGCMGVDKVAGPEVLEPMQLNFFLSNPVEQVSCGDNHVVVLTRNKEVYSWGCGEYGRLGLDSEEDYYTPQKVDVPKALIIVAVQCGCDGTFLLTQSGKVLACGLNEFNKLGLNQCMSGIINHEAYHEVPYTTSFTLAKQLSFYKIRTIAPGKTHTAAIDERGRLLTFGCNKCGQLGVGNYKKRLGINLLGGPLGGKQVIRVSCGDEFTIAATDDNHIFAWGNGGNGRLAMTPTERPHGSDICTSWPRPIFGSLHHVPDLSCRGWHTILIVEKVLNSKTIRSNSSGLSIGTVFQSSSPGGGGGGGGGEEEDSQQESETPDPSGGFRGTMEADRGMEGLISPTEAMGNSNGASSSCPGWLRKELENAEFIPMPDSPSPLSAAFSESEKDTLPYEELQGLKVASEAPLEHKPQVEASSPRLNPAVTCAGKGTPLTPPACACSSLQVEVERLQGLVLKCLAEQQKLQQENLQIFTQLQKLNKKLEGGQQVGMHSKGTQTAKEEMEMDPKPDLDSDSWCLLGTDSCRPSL

[21] = target: PIP5K1C (Homo sapiens, UniProt O60331); conditions: 0.1 µM; binder
[22] = target: PKAC-beta (Homo sapiens, UniProt P22694); conditions: 0.1 µM; binder
[23] = target: PRKCH (Homo sapiens, UniProt P24723); conditions: 0.1 µM; binder
[24] = target: ROCK1 (Homo sapiens, UniProt Q13464); conditions: 0.1 µM; binder
[25] = target: SLK (Homo sapiens, UniProt Q9H2G2); conditions: 0.1 µM; binder
[26] = target: SNRK (Homo sapiens, UniProt Q9NRH2); conditions: 0.1 µM; binder
Chain of SNRK (Q9NRH2 whole entry): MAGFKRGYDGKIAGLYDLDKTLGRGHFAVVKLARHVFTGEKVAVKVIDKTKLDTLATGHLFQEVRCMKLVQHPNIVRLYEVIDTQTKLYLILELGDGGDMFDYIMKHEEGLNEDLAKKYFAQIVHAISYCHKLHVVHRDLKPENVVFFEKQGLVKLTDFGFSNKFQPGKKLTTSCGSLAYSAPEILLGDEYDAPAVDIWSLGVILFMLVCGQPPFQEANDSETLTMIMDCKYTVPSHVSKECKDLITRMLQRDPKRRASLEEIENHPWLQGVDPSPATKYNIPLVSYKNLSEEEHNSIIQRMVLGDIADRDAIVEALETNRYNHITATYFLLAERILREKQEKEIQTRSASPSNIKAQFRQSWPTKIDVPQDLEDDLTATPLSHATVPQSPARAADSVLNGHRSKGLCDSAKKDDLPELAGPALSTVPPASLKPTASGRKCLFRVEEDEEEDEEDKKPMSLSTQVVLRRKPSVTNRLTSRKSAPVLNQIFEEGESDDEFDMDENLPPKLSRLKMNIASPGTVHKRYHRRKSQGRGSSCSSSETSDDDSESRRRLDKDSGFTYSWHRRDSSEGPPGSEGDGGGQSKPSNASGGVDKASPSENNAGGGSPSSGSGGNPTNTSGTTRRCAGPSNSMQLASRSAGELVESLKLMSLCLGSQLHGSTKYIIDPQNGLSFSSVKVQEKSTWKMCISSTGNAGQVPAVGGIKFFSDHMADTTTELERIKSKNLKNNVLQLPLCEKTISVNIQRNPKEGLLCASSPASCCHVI

[27] = target: TIE1 (Homo sapiens, UniProt P35590); conditions: 0.1 µM; binder
[28] = target: TRPM6 (Homo sapiens, UniProt Q9BX84); conditions: 0.1 µM; binder
[29] = target: VEGFR2 (Homo sapiens, UniProt P35968); conditions: 0.1 µM; binder
[30] = target: WEE1 (Homo sapiens, UniProt P30291); conditions: 0.1 µM; binder
Chain of WEE1 (P30291 whole entry): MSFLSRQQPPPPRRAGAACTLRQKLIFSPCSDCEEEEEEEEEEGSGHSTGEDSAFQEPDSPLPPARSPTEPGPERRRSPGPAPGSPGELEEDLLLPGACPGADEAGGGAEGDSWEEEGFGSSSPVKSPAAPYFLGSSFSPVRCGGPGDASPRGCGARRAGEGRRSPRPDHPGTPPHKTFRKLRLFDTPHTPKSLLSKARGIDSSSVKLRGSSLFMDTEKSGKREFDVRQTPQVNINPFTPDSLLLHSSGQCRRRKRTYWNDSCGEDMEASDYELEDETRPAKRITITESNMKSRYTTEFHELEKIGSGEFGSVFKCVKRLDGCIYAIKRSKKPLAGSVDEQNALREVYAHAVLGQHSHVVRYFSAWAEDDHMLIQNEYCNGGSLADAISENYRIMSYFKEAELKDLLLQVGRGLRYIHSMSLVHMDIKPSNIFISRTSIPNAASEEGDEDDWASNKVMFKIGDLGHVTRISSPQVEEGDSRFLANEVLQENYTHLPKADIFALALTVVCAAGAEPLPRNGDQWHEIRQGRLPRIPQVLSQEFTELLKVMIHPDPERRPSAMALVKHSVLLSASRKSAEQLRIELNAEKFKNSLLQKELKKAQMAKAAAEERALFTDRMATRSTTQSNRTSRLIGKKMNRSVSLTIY

[31] = target: YANK1 (Homo sapiens, UniProt Q8WU08); conditions: 0.1 µM; binder

Chain of ABL1 (P00519 whole entry): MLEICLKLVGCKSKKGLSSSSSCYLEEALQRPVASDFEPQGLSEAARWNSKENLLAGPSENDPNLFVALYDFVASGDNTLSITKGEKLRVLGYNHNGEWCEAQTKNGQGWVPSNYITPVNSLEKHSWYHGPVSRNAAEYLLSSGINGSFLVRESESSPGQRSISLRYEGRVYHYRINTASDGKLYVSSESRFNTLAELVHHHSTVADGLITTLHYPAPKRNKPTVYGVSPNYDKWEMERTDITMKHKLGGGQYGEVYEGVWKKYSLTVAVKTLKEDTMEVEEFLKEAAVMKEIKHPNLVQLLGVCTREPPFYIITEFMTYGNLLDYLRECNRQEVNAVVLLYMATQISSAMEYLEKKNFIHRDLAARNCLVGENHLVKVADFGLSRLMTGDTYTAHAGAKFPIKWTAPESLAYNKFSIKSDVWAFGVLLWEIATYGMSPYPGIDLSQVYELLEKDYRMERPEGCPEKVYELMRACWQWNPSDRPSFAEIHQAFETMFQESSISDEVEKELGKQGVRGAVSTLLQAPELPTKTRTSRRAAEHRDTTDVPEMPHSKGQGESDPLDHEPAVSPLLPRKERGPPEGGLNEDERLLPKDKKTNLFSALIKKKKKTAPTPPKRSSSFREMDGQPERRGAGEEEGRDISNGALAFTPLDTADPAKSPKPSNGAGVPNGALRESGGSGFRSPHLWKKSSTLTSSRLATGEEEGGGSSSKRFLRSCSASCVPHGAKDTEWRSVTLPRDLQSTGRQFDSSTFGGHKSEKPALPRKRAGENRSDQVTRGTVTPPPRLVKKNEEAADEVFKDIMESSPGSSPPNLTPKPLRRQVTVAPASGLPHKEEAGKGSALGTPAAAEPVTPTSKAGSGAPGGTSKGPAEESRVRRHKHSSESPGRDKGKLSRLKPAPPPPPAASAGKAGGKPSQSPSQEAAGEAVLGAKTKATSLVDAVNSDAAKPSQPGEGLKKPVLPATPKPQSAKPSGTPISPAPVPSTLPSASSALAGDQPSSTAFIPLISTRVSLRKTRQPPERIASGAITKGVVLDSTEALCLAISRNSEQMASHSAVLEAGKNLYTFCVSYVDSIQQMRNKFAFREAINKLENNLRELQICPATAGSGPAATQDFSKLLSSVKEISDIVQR

CNc1ncc2cc(-c3ccc(-c4cccc(C)n4)cc3Cl)c(=O)n(C[C@H]3OC[C@H](N)CO3)c2n1 [compound 6, G-5555]
Percent Control ([1]; nonphosphorylated): 94%
Percent Control ([1]; phosphorylated): 95%
Percent Control [2]: 99%
Percent Control [3]: 100%
Percent Control [4]: 100%
Percent Control [5]: 87%
Percent Control [6]: 100%
Percent Control [7]: 100%
Percent Control [8]: 87%
Percent Control [9]: 97%
Percent Control [10]: 86%
Percent Control [11]: 63%
Percent Control [12]: 100%
Percent Control [13]: 45%
Percent Control [14]: 100%
Percent Control [15]: 24%
Percent Control [16]: 100%
Percent Control [17]: 93%
Percent Control [18]: 97%
Percent Control [19]: 100%
Percent Control [20]: 100%
Percent Control [21]: 100%
Percent Control [22]: 100%
Percent Control [23]: 82%
Percent Control [24]: 83%
Percent Control [25]: 89%
Percent Control [26]: 84%
Percent Control [27]: 100%
Percent Control [28]: 100%
Percent Control [29]: 98%
Percent Control [30]: 98%
Percent Control [31]: 5.3%
